Reference: article PMC5641094, “A peptide antagonist of Prep1-p160 interaction improves ceramide-induced insulin resistance in skeletal muscle cells” (Oncotarget, 2017)

Columns and labels:
Format in all cases: cell-based, rat
Prep1 mRNA = assay: Real-time RT-PCR of Prep1 mRNA in L6 cells; settings: C2cer 10μM, 18h, normalized to GAPDH, three experiments in triplicate
Method: (§1) Figure 2 Effect of ceramides on Prep1 and p160 mRNA expression and of Prep1-p160 coprecipitation L6 cells were treated with C2cer (10μM) for 18h and Prep1 (A) or p160 (B) mRNA levels were analyzed by real-time RT-PCR analysis. Data were normalized by the amount of GAPDH mRNA, used as internal control. Bars represent the mean ± SD of three independent experiments, each performed in triplicate. (C) L6 cells were treated with cycloheximide (CHX) at 40μg/mL concentration for 18h and the lysates were analyzed by Western blot with anti-p160 and beta-actin. The autoradiograph shown is representative of three different experiments and subjected to densitometric analysis. (D) Protein lysates from L6 cells treated with C2cer as indicated, were immunoprecipitated with Prep1 antibody and immunoblotted with p160 or Prep1 antibodies. The autoradiograph shown is representative of three different experiments and subjected to densitometric analysis. Asterisks denote statistically significant differences (*p<0.05; **p<0.01).
Total cellular RNA was isolated from L6 cells by using the RNeasy kit (QIAGEN Sciences, Germany), according to manufacturer instructions. 1μg of cell RNA was reverse-transcribed using Superscript III Reverse Transcriptase (Life Technologies Carlsbad, CA, USA). PCR reactions were analyzed using IQTM SYBR Green Supermix (Bio-Rad, Hercules, CA). […]

[1] = test system: Prep1 and p160 protein levels in L6 cells; assay: Western blot of Prep1 and p160 protein levels in L6 cells; settings: for increase of Prep1 and p160 protein levels: 18h
Method: Figure 1 Effect of ceramides dose-response and time-course on Prep1 and p160 protein levels L6 skeletal muscle cells were treated with different concentration of C2cer (10μM and 100μM for 18h) (A) and for different time (10μM for 6h and 18h) (B). Protein lysates were analyzed by Western blot using antibodies for Prep1, p160 and for the beta-actin, as a loading control. Blots were detected by ECL and autoradiography. The autoradiographs are representative of four independent experiments. Asterisks denote statistically significant differences (*p<0.05; **p<0.01).
as §1
Figure 3 Design and in vitro effects of Prep1(54-72) peptide on Prep1/p160 association (A) Binding curves of Prep1(59-72) and Prep1(54-72) peptides to p160_20-160 by ELISA-like assays. Biotinylated peptides at several concentrations were added in triplicate to a 96-well plate coated with p160_20-160 (0.1μM). Experiments were performed at least twice and the average results fitted using GraphPad Prism. […] (B) Competition binding experiments. His6-tagged-p160_20-160 at 0.25μM was incubated with Prep1(59-72) and Prep1(54-72) at concentrations ranging between 0.001÷10μM and added to a 96-well plate coated with Prep1_45-155 (0.10μM). Results are the average of three independent experiments. (C) L6 cells were incubated with increasing concentrations of the fluorescein-conjugated peptide (FITC-Prep1(54-72)) and peptide uptake was detected by FACS analysis of fluorescein-labeled cells. Bars represent the mean ± SD of four independent experiments. (D) L6 muscle cells incubated with Prep1(54-72) were stimulated with C2cer (10μM) for 18h. Protein lysates were immunoprecipitated with Prep1 antibodies and analyzed by Western blot using antibodies for p160 or for Prep1. (E) An aliquot of the lysate was used to measure protein expression of Prep1 and p160 and the beta-actin used as loading control. The blots were detected by ECL and autoradiography. The autoradiograph is representative of three independent experiments. Asterisks denote statistically significant differences (*p<0.05; **p<0.01).
L6 rat skeletal muscle cells (ATCC, Manassas, VA, USA) were cultured in DMEM supplemented with 10% FBS and 1% penicillin/streptomycin solution at 37°C in a humidified 95% air and 5% CO2 atmosphere (all vol./vol.). […]
Total cell lysates were obtained and separated by SDS-PAGE. […] The protein concentrations in the cell lysates were measured using a Bio-Rad DC (detergent compatible) assay. […]

L6 cells [2] = assay: Cell toxicity in L6 cells; settings: highest concentration 100μM, data not shown
L6 cells [3] = assay: 2-DG uptake in L6 cells; settings: for effect on insulin-stimulated glucose uptake (2-DG): insulin 100nM, C2cer 10μM, with or without Prep1(54-72)
Method: Figure 6 Effect of Prep1(54-72) peptide on glycogen content and 2-DG uptake L6 control and Prep1 overexpressing cells were stimulated with Insulin (100nM) and/or C2cer (10μM) and incubated with Prep1(54-72). (A) Glycogen content and (B) 2-DG uptake were measured as described in methods. Bars represent the mean ± SD of three independent experiments. Asterisks denote statistically significant differences (*p<0.05; **p<0.01; ***p<0.001).
Glycogen was isolated from L6 cells homogenized in 0.1% SDS, saturated with Na2SO4 for 30 minutes at 37°C, followed by ethanol (EtOH) precipitation. Glycogen content was determined as previously described. 2-DG uptake by the L6 cells was measured as previously reported.

[4] = C2cer 10μM 18h, incubated with Prep1(54-72)

Compound	increase of Prep1 mRNA levels (Prep1 mRNA) [fold]	increase of Prep1 and p160 protein levels ([1]; C2cer 10μM) [%]	increase of Prep1 and p160 protein levels ([1]; C2cer 100μM) [%]	toxicity for the cells (L6 cells [2])	reduction of insulin-stimulated glucose uptake (L6 cells [3]; C2cer exposure (abstract)) [fold]	effect on insulin-stimulated glucose uptake (2-DG) (L6 cells [3])	decrease of ceramide-induced p160 levels [1, 4] [%]	effect on ceramide-induced Prep1 levels [1, 4]
CCCCCCCCCCCCC/C=C/[C@@H](O)[C@H](CO)NC(C)=O [C2cer, D-erythro-Sphingosine, N-Acetyl-, reference compound]	3.2	50	90	slightly toxic	2.1	negatively modulated	–	–
Ac-KQAIYRHPLFPLLALLFEK-NH2 [Prep1(54-72)]	–	–	–	–	–	recovered the insulin response	25	did not modify
